Blank lines part the entries; values can stand above or below the molecule they belong to.
Legend:
BTK = molecular target: T1, BTK (Homo sapiens, UniProt Q06187); test: BTK degradation activity test in Mino cells; assay type: cell-based; settings: 16 h incubation, Western blot or Elisa
T1 construct: endogenous in cells; host or cells: Mino cells
Procedure, shortened: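 DC50 derived by curve fitting of BTK degradation rates versus untreated control across compound concentrations. Mino cells were exposed for 16 h; BTK levels in lysates, normalised via BCA protein, measured by Western blot or ELISA.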

Mino cells = test: Inhibitory activity on Mino cell proliferation (MTS); assay type: cell-based; settings: Homo sapiens, 168 h incubation
Experimental: The anti-tumor efficacy of the compounds was tested by measuring their inhibitory effects on OCI-LY10 and Mino cell proliferation. OCI-LY10 and Mino cells were cultured in RPMI-1640 medium containing 10% fetal calf serum. OCI-LY10 and Mino cells were digested, inoculated in a 96-well plate at a cell concentration of 10000 cells/well, and incubated overnight at 37° C., 5% CO2. Compounds of different concentrations (1000 nM, 4-fold dilution, 8 points) were added to the 96-well plate and incubated for 72 h (LY10) or 168 h (Mino) at 37° C. and 5% CO2, and then 20 uL of MTS was added to each well. After incubation for 2 h, 25 μl of 10% SDS was added to each well to terminate the reaction. The absorbance at 490 nm and 650 nm were measured with a microplate reader. IC50 was calculated using GraphPad Prism 5.0.

T1 sequence (Q06187 whole entry): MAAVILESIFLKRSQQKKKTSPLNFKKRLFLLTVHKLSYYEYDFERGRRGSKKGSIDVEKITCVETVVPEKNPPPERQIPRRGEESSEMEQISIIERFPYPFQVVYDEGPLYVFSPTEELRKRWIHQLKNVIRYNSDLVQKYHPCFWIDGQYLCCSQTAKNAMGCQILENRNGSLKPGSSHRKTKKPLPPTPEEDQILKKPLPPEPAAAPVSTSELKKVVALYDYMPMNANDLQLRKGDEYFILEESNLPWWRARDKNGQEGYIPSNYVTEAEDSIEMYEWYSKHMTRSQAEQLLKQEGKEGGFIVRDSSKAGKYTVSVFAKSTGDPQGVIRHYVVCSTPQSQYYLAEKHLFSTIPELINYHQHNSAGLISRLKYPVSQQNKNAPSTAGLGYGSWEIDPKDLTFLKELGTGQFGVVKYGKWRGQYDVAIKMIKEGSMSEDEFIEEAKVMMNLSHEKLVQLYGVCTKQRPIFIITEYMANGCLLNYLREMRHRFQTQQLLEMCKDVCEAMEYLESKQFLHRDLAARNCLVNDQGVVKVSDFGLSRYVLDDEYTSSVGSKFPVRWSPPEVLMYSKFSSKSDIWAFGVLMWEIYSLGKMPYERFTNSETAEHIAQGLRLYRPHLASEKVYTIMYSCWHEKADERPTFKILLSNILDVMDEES

SMILES: CN1CCN([C@@H]2CCCN(c3nnc(C(N)=O)c(Nc4ccc(N5CCN(C[C@@H]6CCN(c7ccc(N8CCC(=O)NC8=O)cc7)C6)CC5)c(F)c4)n3)C2)C1=O [Compound 152, 5-((4-(4-(((S)-1-(4-(2,4-dioxotetrahydropyrimidin-1(2H)-yl)phenyl)pyrrolidin-3-yl)methyl)piperazin-1-yl)-3-fluorophenyl)amino)-3-((R)-3-(3-methyl-2-oxoimidazolin-1-yl)piperidin-1-yl)-1,2,4-triazin-6-carboxamide]
DC50 (BTK): < 1 nM
IC50 (Mino cells): 2.8 nM

SMILES: CN1CCN([C@@H]2CCCN(c3nnc(C(N)=O)c(Nc4ccc(N5CCN(CC6CCN(c7ccc(C(=O)NC8CCC(=O)NC8=O)c8c7OCCO8)CC6)CC5)c(F)c4)n3)C2)C1=O (stereo partly drawn) [Compound 183, 5-((4-(4-((1-(8-((2,6-dioxopiperidin-3-yl)carbamoyl)-2,3-dihydrobenzo[b][1,4]dioxan-5-yl)piperidin-4-yl)methyl)piperazin-1-yl)-3-fluorophenyl)amino)-3-((R)-3-(3-methyl-2-oxoimidazolidin-1-yl)piperidin-1-yl)-1,2,4-triazin-6-carboxamide]
DC50 (BTK): < 1 nM
IC50 (Mino cells): 4.85 nM

SMILES: CN1CCN([C@@H]2CCCN(c3nnc(C(N)=O)c(Nc4ccc(N5CCN(CC6CCN(c7ccc(C(=O)NC8CCC(=O)NC8=O)c(F)c7F)CC6)CC5)c(F)c4)n3)C2)C1=O (stereo partly drawn) [Compound 182, 5-((4-(4-((1-(4-((2,6-dioxopiperidin-3-yl)carbamoyl)-2,3-difluorophenyl)piperidin-4-yl)methyl)piperazin-1-yl)-3-fluorophenyl)amino)-3-((R)-3-(3-methyl-2-oxoimidazolidin-1-yl)piperidin-1-yl)-1,2,4-triazin-6-carboxamide]
DC50 (BTK): < 1 nM
IC50 (Mino cells): 3.19 nM

SMILES: CN1C(=O)N(C2CCCN(c3nnc(C(N)=O)c(Nc4ccc(C5CCN(CC6CCN(c7ccc8c(c7)C(=O)N(C7CCC(=O)NC7=O)C8=O)CC6)CC5)cc4)n3)C2)CC12CC2 (stereo not shown) [Compound 068, 5-((4-(1-((1-(2-(2,6-dioxopiperidin-3-yl)-1,3-dioxoisoindol-5-yl)piperidin-4-yl)methyl)piperidin-4-yl)phenyl)amino)-3-(3-(4-methyl-5-oxo-4,6-diazaspirocyclo[2.4]heptan-6-yl)piperidin-1-yl)-1,2,4-triazin-6-carboxamide]
DC50 (BTK): < 1 nM

SMILES: CC1(c2ccc(Nc3nc(N4CCCC(N5CCN(C6COC6)C5=O)C4)cnc3C(N)=O)cc2)CCN(C2CCN(c3ccc4c(c3)C(=O)N(C3CCC(=O)NC3=O)C4=O)CC2)CC1 (stereo not shown) [Compound 012, 3-((4-(1′-(2-(2,6-dioxopiperidin-3-yl)-1,3-dioxoisoindol-5-yl)-4-methyl-[1,4′-bipiperidin]-4-yl)phenyl)amino)-5-(3-(3-(oxetan-3-yl)-2-oxoimidazolin-1-yl)piperidin-1-yl)pyrazin-2-carboxamide]
DC50 (BTK): < 1 nM

SMILES: CC1(c2ccc(Nc3nc(N4CCCC(N5CCN(c6ccccc6)C5=O)C4)nnc3C(N)=O)cc2)CCN(C2CN(c3ccc4c(c3)C(=O)N(C3CCC(=O)NC3=O)C4=O)C2)CC1 (stereo not shown) [Compound 092, 5-((4-(1-(1-(2-(2,6-dioxopiperidin-3-yl)-1,3-dioxoisoindol-5-yl)azetidine-3-yl)-4-methylpiperidin-4-yl)phenyl)amino)-3-(3-(2-oxo-3-phenylimidazolin-1-yl)piperidin-1-yl)-1,2,4-triazin-6-carboxamide]
DC50 (BTK): > 1 nM

SMILES: NC(=O)c1ncc(N2CCCC(N3CCN(C4CCCC4)C3=O)C2)nc1Nc1ccc2c(c1)CCN(CC1CN(c3ccc4c(c3)C(=O)N(C3CCC(=O)NC3=O)C4=O)C1)C2 (stereo not shown) [Compound 033, 5-(3-(3-cyclopentyl-2-oxoimidazolin-1-yl)piperidin-1-yl)-3-((2-((1-(2-(2,6-dioxopiperidin-3-yl)-1,3-dioxoisoindol-5-yl)azetidin-3-yl)methyl)-1,2,3,4-tetrahydroisoquinolin-6-yl)amino)pyrazin-2-carboxamide]
DC50 (BTK): < 1 nM

More lines, main results first:

DC50 (BTK): < 1 nM
SMILES: CN1CCN([C@@H]2CCCN(c3nnc(C(N)=O)c(Nc4ccc(N5CCN(CC6CCN(c7ccc(N8CCC(=O)NC8=O)cc7F)CC6)CC5)c(F)c4)n3)C2)C1=O [Compound 186, (R)-5-((4-(4-((1-(4-(2,4-dioxotetrahydropyrimidin-1(2H)-yl)-2-fluorophenyl)piperidin-4-yl)methyl)piperazin-1-yl)-3-fluorophenyl)amino)-3-(3-(3-methyl-2-oxoimidazolidin-1-yl)piperidin-1-yl)-1,2,4-triazin-6-carboxamide]
IC50 (Mino cells): 2.26 nM

DC50 (BTK): < 1 nM
SMILES: CN1CCN([C@@H]2CCCN(c3nnc(C(N)=O)c(Nc4ccc(N5CCN(CC6CCN(c7ccc8c(C9CCC(=O)NC9=O)nn(C)c8c7)CC6)CC5)c(F)c4)n3)C2)C1=O (stereo partly drawn) [Compound 213, 5-((4-(4-((1-(3-(2,6-dioxopiperidin-3-yl)-1-methyl-1H-indazol-6-yl)piperidin-4-yl)methyl)piperazin-1-yl)-3-fluorophenyl)amino)-3-((R)-3-(3-methyl-2-oxoimidazolidin-1-yl)piperidin-1-yl)-1,2,4-triazin-6-carboxamide]
IC50 (Mino cells): 7.64 nM

DC50 (BTK): < 1 nM
SMILES: CN1CCN([C@@H]2CCCN(c3nnc(C(N)=O)c(Nc4ccc(N5CCN(CC6CCN(c7ccc8c(c7)n(C)c(=O)n8C7CCC(=O)NC7=O)CC6)CC5)c(F)c4)n3)C2)C1=O (stereo partly drawn) [Compound 219, 5-((4-(4-((1-(1-(2,6-dioxopiperidin-3-yl)-3-methyl-2-oxo-2,3-dihydro-H-benzo[d]imidazol-5-yl)piperidin-4-yl)methyl)piperazin-1-yl)-3-fluorophenyl)amino)-3-((R)-3-(3-methyl-2-oxoimidazolidin-1-yl)piperidin-1-yl)-1,2,4-triazin-6-carboxamide]
IC50 (Mino cells): 2.74 nM

DC50 (BTK): < 1 nM
SMILES: CN1CCN([C@@H]2CCCN(c3nnc(C(N)=O)c(Nc4ccc(N5CCN(CC6CCN(c7ccc(N8CCC(=O)NC8=O)c(C(F)F)c7)CC6)CC5)c(F)c4)n3)C2)C1=O [Compound 188, (R)-5-((4-(4-((1-(3-(difluoromethyl)-4-(2,4-dioxotetrahydropyrimidin-1(2H)-yl)phenyl)piperidin-4-yl)methyl)piperazin-1-yl)-3-fluorophenyl)amino)-3-(3-(3-methyl-2-oxoimidazolidin-1-yl)piperidin-1-yl)-1,2,4-triazin-6-carboxamide]
IC50 (Mino cells): 5.55 nM

DC50 (BTK): < 1 nM
SMILES: CN1CCN([C@@H]2CCCN(c3nnc(C(N)=O)c(Nc4ccc(N5CCN(CC6CCN(c7ccc(NC8CCC(=O)NC8=O)c8ocnc78)CC6)CC5)c(F)c4)n3)C2)C1=O (stereo partly drawn) [Compound 210, 5-((4-(4-((1-(7-((2,6-dioxopiperidin-3-yl)amino)benzo[d]oxazol-4-yl)piperidin-4-yl)methyl)piperazin-1-yl)-3-fluorophenyl)amino)-3-((R)3-(3-methyl-2-oxoimidazolidin-1-yl)piperidin-1-yl)-1,2,4-triazin-6-carboxamide]
IC50 (Mino cells): 2.33 nM

DC50 (BTK): < 1 nM
SMILES: CN1CCN([C@@H]2CCCN(c3nnc(C(N)=O)c(Nc4ccc(N5CCN(CC6CCN(c7ccc(NC8CCC(=O)NC8=O)c8c7OCO8)CC6)CC5)c(F)c4)n3)C2)C1=O (stereo partly drawn) [Compound 209, 5-((4-(4-((1-(7-((2,6-dioxopiperidin-3-yl)amino)benzo[d][1,3]dioxacyclopent-4-yl)piperidin-4-yl)methyl)piperazin-1-yl)-3-fluorophenyl)amino)-3-((R)-3-(3-methyl-2-oxoimidazolidin-1-yl)piperidin-1-yl)-1,2,4-triazin-6-carboxamide]
IC50 (Mino cells): 3.42 nM

DC50 (BTK): < 1 nM
SMILES: CN1CCN([C@@H]2CCCN(c3nnc(C(N)=O)c(Nc4ccc(N5CCN(CC6CCN(c7ccc(N8CCC(=O)NC8=O)c8ocnc78)CC6)CC5)c(F)c4)n3)C2)C1=O [Compound 191, (R)-5-((4-(4-((1-(7-(2,4-dioxotetrahydropyrimidin-1(2H)-yl)benzo[d]oxazol-4-yl)piperidin-4-yl)methyl)piperazin-1-yl)-3-fluorophenyl)amino)-3-(3-(3-methyl-2-oxoimidazolidin-1-yl)piperidin-1-yl)-1,2,4-triazin-6-carboxamide]
IC50 (Mino cells): 8.47 nM

DC50 (BTK): < 1 nM
SMILES: CN1CCN([C@@H]2CCCN(c3nnc(C(N)=O)c(Nc4ccc(N5CCN(CC6CCN(c7ccc(N8CCC(=O)NC8=O)c(C(F)(F)F)c7)CC6)CC5)c(F)c4)n3)C2)C1=O [Compound 187, (R)-5-((4-(4-((1-(4-(2,4-dioxotetrahydropyrimidin-1(2H)-yl)-3-(trifluoromethyl)phenyl)piperidin-4-yl)methyl)piperazin-1-yl)-3-fluorophenyl)amino)-3-(3-(3-methyl-2-oxoimidazolidin-1-yl)piperidin-1-yl)-1,2,4-triazin-6-carboxamide]
IC50 (Mino cells): 2.07 nM

DC50 (BTK): < 1 nM
SMILES: CC(C)c1cc(N2CCC(CN3CCN(c4ccc(Nc5nc(N6CCC[C@@H](N7CCN(C)C7=O)C6)nnc5C(N)=O)cc4F)CC3)CC2)ccc1N1CCC(=O)NC1=O [Compound 189, (R)-5-((4-(4-((1-(4-(2,4-dioxotetrahydropyrimidin-1(2H)-yl)-3-isopropylphenyl)piperidin-4-yl)methyl)piperazin-1-yl)-3-fluorophenyl)amino)-3-(3-(3-methyl-2-oxoimidazolidin-1-yl)piperidin-1-yl)-1,2,4-triazin-6-carboxamide]
IC50 (Mino cells): 5.45 nM
